Like-named read-outs stand apart in the source and are kept apart here.
Legend:
Type in all cases: in vivo
[1] = system: pigweed (Amaranthus retroflexus); assay: Test A preemergence; conditions: Amaranthus retroflexus, pre-emergence, 240 h; for pest or weed control at 125 g/ha: 125 g ai/ha, preemergence, 0 to 100 scale where 0 is no effect and 100 is complete control, read-out: Pigweed plant response rating; for pest or weed control at 500 g/ha: 500 g ai/ha, Preemergence, visual injury vs untreated controls after approximately 10 d, read-out: Pigweed plant response rating (0 to 100 scale where 0 is no effect and 100 is complete control)
[2] = system: giant foxtail (Setaria faberii); assay: Test A preemergence; conditions: Setaria faberi, pre-emergence, 240 h; for pest or weed control at 125 g/ha: 125 g ai/ha, preemergence, 0 to 100 scale where 0 is no effect and 100 is complete control, read-out: Foxtail, Giant plant response rating; for pest or weed control at 500 g/ha: 500 g ai/ha, Preemergence, visual injury vs untreated controls after approximately 10 d, read-out: Foxtail, Giant plant response rating (0 to 100 scale where 0 is no effect and 100 is complete control)
Procedure, shortened: (§1)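 Visual injury scores from 0, no effect, to 100, complete control, were assigned versus untreated controls roughly 10 d after treatment in the greenhouse. Test chemicals, formulated with surfactant in a non-phytotoxic solvent, were applied to planted seeds as a preemergence soil spray or postemergence to one- to two-leaf plants 2 to 10 cm tall, in loam–sand soil.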

Kochia (Kochia scoparia) [3] = assay: Test A preemergence; conditions: Bassia scoparia, pre-emergence, 240 h; for pest or weed control at 125 g/ha: 125 g ai/ha, preemergence, 0 to 100 scale where 0 is no effect and 100 is complete control, read-out: Kochia plant response rating; for pest or weed control at 500 g/ha: 500 g ai/ha, Preemergence, visual injury vs untreated controls after approximately 10 d, read-out: Kochia plant response rating (0 to 100 scale where 0 is no effect and 100 is complete control)
Procedure, shortened: as §1

[4] = system: barnyardgrass (Echinochloa crus-galli); assay: Test A preemergence; conditions: Echinochloa crus-galli, pre-emergence, 240 h; for pest or weed control at 125 g/ha: 125 g ai/ha, preemergence, 0 to 100 scale where 0 is no effect and 100 is complete control, read-out: Barnyardgrass plant response rating; for pest or weed control at 500 g/ha: 500 g ai/ha, Preemergence, visual injury vs untreated controls after approximately 10 d, read-out: Barnyardgrass plant response rating (0 to 100 scale where 0 is no effect and 100 is complete control)
Procedure, shortened: as §1

[5] = system: ryegrass, Italian (Italian ryegrass, Lolium multiflorum); assay: Test A preemergence; conditions: Lolium multiflorum, pre-emergence, 240 h; for pest or weed control at 125 g/ha: 125 g ai/ha, preemergence, 0 to 100 scale where 0 is no effect and 100 is complete control, read-out: Ryegrass, Italian plant response rating; for pest or weed control at 500 g/ha: 500 g ai/ha, Preemergence, visual injury vs untreated controls after approximately 10 d, read-out: Ryegrass, Italian plant response rating (0 to 100 scale where 0 is no effect and 100 is complete control)
Procedure, shortened: as §1

[6] = system: ragweed (common ragweed, Ambrosia elatior); assay: Test A preemergence; conditions: Ambrosia artemisiifolia, pre-emergence, 240 h; for pest or weed control at 125 g/ha: 125 g ai/ha, preemergence, 0 to 100 scale where 0 is no effect and 100 is complete control, read-out: Ragweed plant response rating; for pest or weed control at 500 g/ha: 500 g ai/ha, Preemergence, visual injury vs untreated controls after approximately 10 d, read-out: Ragweed plant response rating (0 to 100 scale where 0 is no effect and 100 is complete control)
Procedure, shortened: as §1

[7] = system: blackgrass (Alopecurus myosuroides); assay: Test A postemergence; conditions: Alopecurus myosuroides, post-emergence, 240 h, 125 g ai/ha
Procedure, shortened: as §1

[8] = system: pigweed (Amaranthus retroflexus); assay: Test A postemergence; conditions: Amaranthus retroflexus, post-emergence, 240 h, 125 g ai/ha
Procedure, shortened: as §1

corn (Zea mays) = assay: Test A postemergence; conditions: Zea mays, post-emergence, 240 h, 125 g ai/ha
Procedure, shortened: as §1

[9] = system: Galium (catchweed bedstraw, Galium aparine); assay: Test A postemergence; conditions: Galium, post-emergence, 240 h, 125 g ai/ha
Procedure, shortened: as §1

[10] = system: giant foxtail (Setaria faberii); assay: Test A postemergence; conditions: Setaria faberi, post-emergence, 240 h, 125 g ai/ha
Procedure, shortened: as §1

[11] = system: wheat (Triticum aestivum); assay: Test A postemergence; conditions: Triticum aestivum, post-emergence, 240 h, 125 g ai/ha
Procedure, shortened: as §1

Kochia (Kochia scoparia) [12] = assay: Test A postemergence; conditions: Bassia scoparia, post-emergence, 240 h, 125 g ai/ha
Procedure, shortened: as §1

[13] = system: barnyardgrass (Echinochloa crus-galli); assay: Test A postemergence; conditions: Echinochloa crus-galli, post-emergence, 240 h, 125 g ai/ha
Procedure, shortened: as §1

[14] = system: ryegrass, Italian (Italian ryegrass, Lolium multiflorum); assay: Test A postemergence; conditions: Lolium multiflorum, post-emergence, 240 h, 125 g ai/ha
Procedure, shortened: as §1

[15] = system: ragweed (common ragweed, Ambrosia elatior); assay: Test A postemergence; conditions: Ambrosia artemisiifolia, post-emergence, 240 h, 125 g ai/ha
Procedure, shortened: as §1

Row | SMILES | pest or weed control at 125 g/ha [1] | pest or weed control at 500 g/ha [1] | pest or weed control at 125 g/ha [2] | pest or weed control at 500 g/ha [2] | pest or weed control at 125 g/ha (Kochia (Kochia scoparia) [3]) | pest or weed control at 500 g/ha (Kochia (Kochia scoparia) [3]) | pest or weed control at 125 g/ha [4] | pest or weed control at 500 g/ha [4] | pest or weed control at 125 g/ha [5] | pest or weed control at 500 g/ha [5] | pest or weed control at 125 g/ha [6] | pest or weed control at 500 g/ha [6] | other results
1 | Cc1cc(C)cc([C@H]2CN(C)C(=O)[C@@H]2C(=O)Nc2ccccc2C(F)(F)F)c1 [Compound 912] | 0% | 0% | 90% | 100% | 60% | 70% | 80% | 90% | 40% | 50% | 0% | 0% | pest or weed control at 125 g/ha ([7]; postemergence, visual injury rating after approximately 10 d, read-out: Blackgrass plant response rating (0 to 100 scale, 0 no effect, 100 complete control)): 30%; pest or weed control at 125 g/ha ([8]; postemergence, visual injury rating after approximately 10 d, read-out: Pigweed plant response rating (0 to 100 scale, 0 no effect, 100 complete control)): 0%; plant injury at 125 g/ha (corn (Zea mays); postemergence, visual injury rating after approximately 10 d, read-out: Corn plant response rating (0 to 100 scale, 0 no effect, 100 complete control)): 30%; pest or weed control at 125 g/ha ([9]; postemergence, visual injury rating after approximately 10 d, read-out: Galium plant response rating (0 to 100 scale, 0 no effect, 100 complete control)): 0%; pest or weed control at 125 g/ha ([10]; postemergence, visual injury rating after approximately 10 d, read-out: Foxtail, Giant plant response rating (0 to 100 scale, 0 no effect, 100 complete control)): 90%; plant injury at 125 g/ha ([11]; postemergence, visual injury rating after approximately 10 d, read-out: Wheat plant response rating (0 to 100 scale, 0 no effect, 100 complete control)): 20%; pest or weed control at 125 g/ha (Kochia (Kochia scoparia) [12]; postemergence, visual injury rating after approximately 10 d, read-out: Kochia plant response rating (0 to 100 scale, 0 no effect, 100 complete control)): 0%; pest or weed control at 125 g/ha ([13]; postemergence, visual injury rating after approximately 10 d, read-out: Barnyardgrass plant response rating (0 to 100 scale, 0 no effect, 100 complete control)): 80%; pest or weed control at 125 g/ha ([14]; postemergence, visual injury rating after approximately 10 d, read-out: Ryegrass, Italian plant response rating (0 to 100 scale, 0 no effect, 100 complete control)): 20%; pest or weed control at 125 g/ha ([15]; postemergence, visual injury rating after approximately 10 d, read-out: Ragweed plant response rating (0 to 100 scale, 0 no effect, 100 complete control)): 0%
2 | CN1CC[C@H](c2ccc(F)cc2)[C@@H](C(=O)Nc2ccccc2F)C1=O [Compound 917] | 0% | 0% | 30% | 90% | 0% | 0% | 20% | 80% | 0% | 0% | 0% | 0% | pest or weed control at 125 g/ha ([7]; Postemergence, visual injury after approximately 10 d, 0 to 100 scale where 0 is no effect and 100 is complete control, read-out: Plant response rating, Blackgrass): 0%; pest or weed control at 125 g/ha ([8]; Postemergence, visual injury after approximately 10 d, 0 to 100 scale where 0 is no effect and 100 is complete control, read-out: Plant response rating, Pigweed): 0%; Corn plant response rating (crop injury, 0 = no effect, 100 = complete kill) at 125 g/ha (corn (Zea mays); Postemergence, visual injury after approximately 10 d, 0 to 100 scale where 0 is no effect and 100 is complete control): 0%; pest or weed control at 125 g/ha ([9]; Postemergence, visual injury after approximately 10 d, 0 to 100 scale where 0 is no effect and 100 is complete control, read-out: Plant response rating, Galium): 0%; pest or weed control at 125 g/ha ([10]; Postemergence, visual injury after approximately 10 d, 0 to 100 scale where 0 is no effect and 100 is complete control, read-out: Plant response rating, Foxtail, Giant): 0%; plant injury at 125 g/ha ([11]; Postemergence, visual injury after approximately 10 d, 0 to 100 scale where 0 is no effect and 100 is complete control, read-out: Plant response rating, Wheat): 0%; pest or weed control at 125 g/ha (Kochia (Kochia scoparia) [12]; Postemergence, visual injury after approximately 10 d, 0 to 100 scale where 0 is no effect and 100 is complete control, read-out: Plant response rating, Kochia): 0%; pest or weed control at 125 g/ha ([13]; Postemergence, visual injury after approximately 10 d, 0 to 100 scale where 0 is no effect and 100 is complete control, read-out: Plant response rating, Barnyardgrass): 0%; pest or weed control at 125 g/ha ([14]; Postemergence, visual injury after approximately 10 d, 0 to 100 scale where 0 is no effect and 100 is complete control, read-out: Plant response rating, Ryegrass, Italian): 0%; pest or weed control at 125 g/ha ([15]; Postemergence, visual injury after approximately 10 d, 0 to 100 scale where 0 is no effect and 100 is complete control, read-out: Plant response rating, Ragweed): 0%

Source: patent US12077503B2, “Substituted cyclic amides and their use as herbicides” (FMC CORPORATION, priority 2015, dated 2024)
